Experimental data as given in patent US20100022514A1, “Heterocycle Compounds and Methods of Use Thereof” (NORVARTIS AG, priority 2006, published 2010).
Read-outs that look alike come from different tables or passages of the source.

Legend:
HDAC-1 = target: T1, HDAC-1 (Homo sapiens, UniProt Q13547); test: Deacetylase fluorescence assay (HDAC-1); format: biochemical
T1 construct: made in house
Outline: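 Flag-tagged HDAC-1 immunopurified from overexpressing 293-derived cells was assayed in 25 mM Tris-HCl pH 8.0, 137 mM NaCl, 2.7 mM KCl, 1 mM MgCl2 with Fluor de Lys substrate (50 uM) and inhibitor. Deacetylation was read by fluorescence after trypsin developer containing TSA.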

[1] = test system: p21 promoter (p21-luc) in H1299 cells; test: p21 promoter luciferase assay using stably transfected p21-luc in H1299 cells; format: cell-based; details: Homo sapiens, NCI-H1299
Outline: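 H1299 cells stably carrying a p21 promoter–luciferase reporter, grown in RPMI 1640/10% FBS under Geneticin selection, seeded about 5000 cells/well and incubated overnight at 37 C. Compound exposure lasted one day. Cells were then lysed and luciferase luminescence measured.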

T1 sequence (Q13547 whole entry): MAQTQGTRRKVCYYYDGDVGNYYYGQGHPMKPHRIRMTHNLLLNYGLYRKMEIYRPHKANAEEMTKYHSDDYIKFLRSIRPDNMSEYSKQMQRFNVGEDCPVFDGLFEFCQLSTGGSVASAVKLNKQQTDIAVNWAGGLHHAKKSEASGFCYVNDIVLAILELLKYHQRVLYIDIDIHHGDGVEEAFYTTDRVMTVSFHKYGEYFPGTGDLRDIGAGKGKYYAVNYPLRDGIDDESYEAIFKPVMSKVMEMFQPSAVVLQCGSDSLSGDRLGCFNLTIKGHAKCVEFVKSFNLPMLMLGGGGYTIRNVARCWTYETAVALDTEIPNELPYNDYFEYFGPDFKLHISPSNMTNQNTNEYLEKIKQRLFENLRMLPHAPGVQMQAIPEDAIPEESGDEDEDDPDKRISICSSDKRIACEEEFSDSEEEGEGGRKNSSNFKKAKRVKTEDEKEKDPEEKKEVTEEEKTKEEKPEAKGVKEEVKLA

SMILES: Cc1[nH]c2ccccc2c1CC(=O)N1CCc2ccc(/C=C/C(=O)NO)cc2C1 [Example 61, (E)-N-Hydroxy-3-{2-[2-(2-methyl-1H-indol-3-yl)-acetyl]-1,2,3,4-tetrahydro-isoquinolin-7-yl}-acrylamide]
- IC50 (HDAC-1; read-out: HDAC-1 IC50): < 100 nM
- AC50 [1]: > 1000 nM

SMILES: Cc1[nH]c2ccccc2c1CC(=O)N1Cc2ccc(/C=C/C(=O)NO)cc2C1 [Example 25, (E)-N-Hydroxy-3-{2-[2-(2-methyl-1H-indol-3-yl)-acetyl]-2,3-dihydro-1H-isoindol-5-yl}-acrylamide]
- IC50 (HDAC-1; read-out: HDAC-1 IC50): < 100 nM
- AC50 [1]: > 1000 nM

SMILES: Cn1cc(CCN2CCc3ccc(/C=C/C(=O)NO)cc3C2)c(-c2ccccc2)n1 [Example 46, (E)-N-Hydroxy-3-{2-[2-(1-methyl-3-phenyl-1H-pyrazol-4-yl)-ethyl]-1,2,3,4-tetrahydro-isoquinolin-7-yl}-acrylamide]
- IC50 (HDAC-1; read-out: HDAC-1 IC50): 100 to 1000 nM
- AC50 [1]: > 1000 nM

SMILES: COc1ccc(C(=O)N2CCc3cc(/C=C/C(=O)NO)ccc3C2)cc1 [Example 89, (E)-N-Hydroxy-3-[2-(4-methoxy-benzoyl)-1,2,3,4-tetrahydro-isoquinolin-6-yl]-acrylamide]
- IC50 (HDAC-1; read-out: HDAC-1 IC50): 100 to 1000 nM
- AC50 [1]: > 1000 nM

SMILES: CN(C)c1ccc(C(=O)N2CCc3ccc(/C=C/C(=O)NO)cc3C2)cc1 [Example 53, (E)-3-[2-(4-Dimethylamino-benzoyl)-1,2,3,4-tetrahydro-isoquinolin-7-yl]-N-hydroxy-acrylamide]
- IC50 (HDAC-1; read-out: HDAC-1 IC50): < 100 nM
- AC50 [1]: > 1000 nM

SMILES: O=C(/C=C/c1ccc2c(c1)CN(C(=O)Cc1ccc(Cl)c(Cl)c1)CC2)NO [Example 67, (E)-3-{2-[2-(3,4-Dichloro-phenyl)-acetyl]-1,2,3,4-tetrahydro-isoquinolin-7-yl}-N-hydroxy-acrylamide]
- IC50 (HDAC-1; read-out: HDAC-1 IC50): < 100 nM
- AC50 [1]: > 1000 nM

SMILES: CCCCS(=O)(=O)N1Cc2ccc(/C=C/C(=O)NO)cc2C1 [Example 19, (E)-3-[2-(Butane-1-sulfonyl)-2,3-dihydro-1H-isoindol-5-yl]-N-hydroxy-acrylamide]
- IC50 (HDAC-1; read-out: HDAC-1 IC50): 100 to 1000 nM
- AC50 [1]: > 1000 nM

SMILES: O=C(/C=C/c1ccc2c(c1)CN(C(=O)Cc1ccccc1)CC2)NO [Example 63, (E)-N-Hydroxy-3-(2-phenylacetyl-1,2,3,4-tetrahydro-isoquinolin-7-yl)-acrylamide]
- IC50 (HDAC-1; read-out: HDAC-1 IC50): < 100 nM
- AC50 [1]: > 1000 nM

SMILES: Cc1[nH]c2ccccc2c1CC(=O)N1CCc2ccc(CCC(=O)NO)cc2C1 [Example 62, N-Hydroxy-3-{2-[2-(2-methyl-1H-indol-3-yl)-acetyl]-1,2,3,4-tetrahydro-isoquinolin-7-yl}-propionamide]
- IC50 (HDAC-1; read-out: HDAC-1 IC50): < 100 nM
- AC50 [1]: > 1000 nM

SMILES: CCc1nn2ccccc2c1CCN1CCc2cc(/C=C/C(=O)NO)ccc2C1 [Example 72, (E)-3-{2-[2-(2-Ethyl-pyrazolo[1,5-a]pyridin-3-yl)-ethyl]-1,2,3,4-tetrahydro-isoquinolin-6-yl}-N-hydroxy-acrylamide]
- IC50 (HDAC-1; read-out: HDAC-1 IC50): < 100 nM
- AC50 [1]: 100 to 1000 nM

SMILES: O=C(/C=C/c1ccc2c(c1)CN(C(=O)c1cccnc1)C2)NO [Example 17, (E)-N-Hydroxy-3-[2-(pyridine-3-carbonyl)-2,3-dihydro-1H-isoindol-5-yl]-acrylamide]
- IC50 (HDAC-1; read-out: HDAC-1 IC50): 100 to 1000 nM
- AC50 [1]: > 1000 nM

SMILES: O=C(/C=C/c1ccc2c(c1)CCN(S(=O)(=O)c1ccccc1)C2)NO [Example 81, (E)-3-(2-Benzenesulfonyl-1,2,3,4-tetrahydro-isoquinolin-6-yl)-N-hydroxy-acrylamide]
- IC50 (HDAC-1; read-out: HDAC-1 IC50): 100 to 1000 nM
- AC50 [1]: > 1000 nM

SMILES: O=C(/C=C/c1ccc2c(c1)CN(CCc1c[nH]c3ccccc13)C2)NO [Example 27, (E)-N-Hydroxy-3-{2-[2-(1H-indol-3-yl)-ethyl]-2,3-dihydro-1H-isoindol-5-yl}-acrylamide]
- IC50 (HDAC-1): < 100 nM
- AC50 [1]: > 1000 nM

SMILES: COc1cccc(S(=O)(=O)N2CCc3ccc(/C=C/C(=O)NO)cc3C2)c1 [Example 55, (E)-N-Hydroxy-3-[2-(3-methoxy-benzenesulfonyl)-1,2,3,4-tetrahydro-isoquinolin-7-yl]-acrylamide]
- IC50 (HDAC-1; read-out: HDAC-1 IC50): 100 to 1000 nM
- AC50 [1]: > 1000 nM

SMILES: Cc1nn2ccccc2c1CCN1CCCc2cc(/C=C/C(=O)NO)ccc2C1 [Example 33, (E)-N-Hydroxy-3-{2-[2-(2-methyl-pyrazolo[1,5-a]pyridin-3-yl)-ethyl]-2,3,4,5-tetrahydro-1H-benzo[c]azepin-7-yl}-acrylamide]
- IC50 (HDAC-1; read-out: HDAC-1 IC50): < 100 nM
- AC50 [1]: > 1000 nM

SMILES: O=C(/C=C/c1ccc2c(c1)CN(S(=O)(=O)c1ccc(C(F)(F)F)cc1)C2)NO [Example 10, (E)-N-Hydroxy-3-[2-(4-trifluoromethyl-benzenesulfonyl)-2,3-dihydro-1H-isoindol-5-yl]-acrylamide]
- IC50 (HDAC-1; read-out: HDAC-1 IC50): 100 to 1000 nM
- AC50 [1]: > 1000 nM

SMILES: Cn1cnc(S(=O)(=O)N2Cc3ccc(/C=C/C(=O)NO)cc3C2)c1 [Example 15, (E)-N-Hydroxy-3-[2-(1-methyl-1H-imidazole-4-sulfonyl)-2,3-dihydro-1H-isoindol-5-yl]-acrylamide]
- IC50 (HDAC-1; read-out: HDAC-1 IC50): 100 to 1000 nM
- AC50 [1]: > 1000 nM

SMILES: O=C(/C=C/c1ccc2c(c1)CCN(Cc1ccccc1)C2)NO [Example 77, (E)-3-(2-Benzyl-1,2,3,4-tetrahydro-isoquinolin-6-yl)-N-hydroxy-acrylamide]
- IC50 (HDAC-1; read-out: HDAC-1 IC50): 100 to 1000 nM
- AC50 [1]: > 1000 nM

SMILES: COc1ccc(S(=O)(=O)N2Cc3ccc(/C=C/C(=O)NO)cc3C2)cc1 [Example 9, (E)-N-Hydroxy-3-[2-(4-methoxy-benzenesulfonyl)-2,3-dihydro-1H-isoindol-5-yl]-acrylamide]
- IC50 (HDAC-1; read-out: HDAC-1 IC50): < 100 nM
- AC50 [1]: > 1000 nM

SMILES: Cc1[nH]c2ccccc2c1CCN1CCc2ccc(/C=C/C(=O)NO)cc2CC1 [Example 80, (E)-N-Hydroxy-3-{3-[2-(2-methyl-1H-indol-3-yl)-ethyl]-2,3,4,5-tetrahydro-1H-benzo[d]azepin-7-yl}-acrylamide]
- IC50 (HDAC-1; read-out: HDAC-1 IC50): < 100 nM
- AC50 [1]: > 1000 nM

SMILES: O=C(/C=C/c1ccc2c(c1)CN(C(=O)C1CC1)C2)NO [Example 23, (E)-3-(2-Cyclopropanecarbonyl-2,3-dihydro-1H-isoindol-5-yl)-N-hydroxy-acrylamide]
- IC50 (HDAC-1; read-out: HDAC-1 IC50): 100 to 1000 nM
- AC50 [1]: > 1000 nM

SMILES: O=C(CCc1ccc2c(c1)CN(CCC1CCCCC1)CC2)NO [Example 31]
- IC50 (HDAC-1; read-out: HDAC-1 IC50): 100 to 1000 nM
- AC50 [1]: > 1000 nM

SMILES: Cc1c(CCN2CCc3cc(/C=C/C(=O)NO)ccc3C2)cnn1-c1ccccc1 [Example 85, (E)-N-Hydroxy-3-{2-[2-(5-methyl-1-phenyl-1H-pyrazol-4-yl)-ethyl]-1,2,3,4-tetrahydro-isoquinolin-6-yl}-acrylamide]
- IC50 (HDAC-1; read-out: HDAC-1 IC50): < 100 nM
- AC50 [1]: > 1000 nM

SMILES: COc1cccc(C(=O)N2CCc3ccc(CCC(=O)NO)cc3C2)c1 [Example 60, N-Hydroxy-3-[2-(3-methoxy-benzoyl)-1,2,3,4-tetrahydro-isoquinolin-7-yl]-propionamide]
- IC50 (HDAC-1; read-out: HDAC-1 IC50): 100 to 1000 nM
- AC50 [1]: > 1000 nM

SMILES: CCc1nn2ccccc2c1CCN1CCc2cc(CCC(=O)NO)ccc2C1 [Example 73, 3-{2-[2-(2-Ethyl-pyrazolo[1,5-a]pyridin-3-yl)-ethyl]-1,2,3,4-tetrahydro-isoquinolin-6-yl}-N-hydroxy-propionamide]
- IC50 (HDAC-1; read-out: HDAC-1 IC50): 100 to 1000 nM
- AC50 [1]: > 1000 nM

SMILES: Cc1[nH]c2ccccc2c1CC(=O)N1CCc2cc(/C=C/C(=O)NO)ccc2C1 [Example 79, (E)-N-Hydroxy-3-{2-[2-(2-methyl-1H-indol-3-yl)-acetyl]-1,2,3,4-tetrahydro-isoquinolin-6-yl}-acrylamide]
- IC50 (HDAC-1; read-out: HDAC-1 IC50): < 100 nM
- AC50 [1]: > 1000 nM

SMILES: O=C(/C=C/c1ccc2c(c1)CN(CCC1CCCCC1)CC2)NO [Example 45, (E)-3-[2-(2-Cyclohexyl-ethyl)-1,2,3,4-tetrahydro-isoquinolin-7-yl]-N-hydroxy-acrylamide]
- IC50 (HDAC-1; read-out: HDAC-1 IC50): 100 to 1000 nM
- AC50 [1]: > 1000 nM

SMILES: Cc1nn(C)c(C)c1CN1CCc2cc(/C=C/C(=O)NO)ccc2C1 [Example 32, (E)-N-Hydroxy-3-[2-(1,3,5-trimethyl-1H-pyrazol-4-ylmethyl)-1,2,3,4-tetrahydro-isoquinolin-6-yl]-acrylamide]
- IC50 (HDAC-1; read-out: HDAC-1 IC50): > 1000 nM
- AC50 [1]: > 1000 nM

SMILES: Cc1nn(C)c(C)c1CCN1CCc2ccc(/C=C/C(=O)NO)cc2C1 [Example 50, (E)-N-Hydroxy-3-{2-[2-(1,3,5-trimethyl-1H-pyrazol-4-yl)-ethyl]-1,2,3,4-tetrahydro-isoquinolin-7-yl}-acrylamide]
- IC50 (HDAC-1; read-out: HDAC-1 IC50): 100 to 1000 nM
- AC50 [1]: > 1000 nM
